According to publication PMC6268991, “Impact of Halogen Substituents on Interactions between 2-Phenyl-2,3-dihydroqulinazolin-4(1H)-one Derivatives and Human Serum Albumin” (Molecules, 2012):

target: T1, human serum albumin (HSA) (Homo sapiens, UniProt P02768); assay: intrinsic fluorescence quenching, modified Stern-Volmer; assay type: binding; conditions: 298 K, pH 7.4, 0.1 M Tris, 0.1 M NaCl, 1 µM HSA, ex 280 / em 337 nm; site II (subdomain IIIA), no site marker
T1 construct: gene ALB
Description: intrinsic fluorescence quenching, modified Stern-Volmer on human serum albumin (HSA)

T1 sequence (P02768 25-609): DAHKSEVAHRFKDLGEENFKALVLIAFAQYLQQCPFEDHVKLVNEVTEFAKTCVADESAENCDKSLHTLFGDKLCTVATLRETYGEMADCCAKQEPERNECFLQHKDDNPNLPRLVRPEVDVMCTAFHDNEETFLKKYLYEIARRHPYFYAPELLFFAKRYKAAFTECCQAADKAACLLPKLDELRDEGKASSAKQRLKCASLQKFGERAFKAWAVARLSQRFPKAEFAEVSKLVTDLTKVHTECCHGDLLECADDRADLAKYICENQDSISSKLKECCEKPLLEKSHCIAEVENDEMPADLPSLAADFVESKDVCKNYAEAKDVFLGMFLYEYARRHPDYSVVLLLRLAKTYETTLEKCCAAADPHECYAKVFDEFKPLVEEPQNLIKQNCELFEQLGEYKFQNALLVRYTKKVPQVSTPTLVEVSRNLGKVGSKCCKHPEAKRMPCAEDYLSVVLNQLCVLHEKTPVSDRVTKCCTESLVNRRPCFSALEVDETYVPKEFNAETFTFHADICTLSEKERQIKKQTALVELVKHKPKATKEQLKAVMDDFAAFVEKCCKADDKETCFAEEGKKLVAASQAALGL

Ka (×10^4 M^-1) | SMILES
2.16 ×10^4 M^−1 | CC(C)(C)CC(=O)N1c2ccc(Cl)cc2C(=O)N(N=Cc2ccccc2)C1c1ccccc1 (centres unmarked) [3a, 3-(Benzylideneamino)-6-chloro-1-(3,3-dimethylbutanoyl)-2-phenyl-2,3-dihydroquinazolin-4(1H)-one]
3.44 ×10^4 M^−1 | CC(C)(C)CC(=O)N1c2ccc(Cl)cc2C(=O)N(N=Cc2ccc(Cl)cc2)C1c1ccc(Cl)cc1 (centres unmarked) [3c, 3-(4-Chlorobenzylideneamino)-6-chloro-1-(3,3-dimethylbutanoyl)-2-(4-chlorophenyl)-2,3-dihydroquinazolin-4(1H)-one]
7.21 ×10^4 M^−1 | CC(C)(C)CC(=O)N1c2ccc(Cl)cc2C(=O)N(N=Cc2ccc(I)cc2)C1c1ccc(I)cc1 (centres unmarked) [3e, 3-(4-Iodobenzylideneamino)-6-chloro-1-(3,3-dimethylbutanoyl)-2-(4-iodophenyl)-2,3-dihydroquinazolin-4(1H)-one]
2.64 ×10^4 M^−1 | CC(C)(C)CC(=O)N1c2ccc(Cl)cc2C(=O)N(N=Cc2ccc(F)cc2)C1c1ccc(F)cc1 (centres unmarked) [3b, 3-(4-Fluorobenzylideneamino)-6-chloro-1-(3,3-dimethylbutanoyl)-2-(4-fluorophenyl)-2,3-dihydroquinazolin-4 (1H)-one]
4.37 ×10^4 M^−1 | CC(C)(C)CC(=O)N1c2ccc(Cl)cc2C(=O)N(N=Cc2ccc(Br)cc2)C1c1ccc(Br)cc1 (centres unmarked) [3d, 3-(4-Bromobenzylideneamino)-6-chloro-1-(3,3-dimethylbutanoyl)-2-(4-bromophenyl)-2,3-dihydroquinazolin-4(1H)-one]
